Patent US20250171438A1 (Agios Pharmaceuticals, Inc., priority 2022, published 2025)

Target: T1, human PAH with the R408W mutation (Homo sapiens, UniProt P00439, R408W)
T1 construct: expressed in transfected cells
T1 sequence (P00439 1-452 R408W): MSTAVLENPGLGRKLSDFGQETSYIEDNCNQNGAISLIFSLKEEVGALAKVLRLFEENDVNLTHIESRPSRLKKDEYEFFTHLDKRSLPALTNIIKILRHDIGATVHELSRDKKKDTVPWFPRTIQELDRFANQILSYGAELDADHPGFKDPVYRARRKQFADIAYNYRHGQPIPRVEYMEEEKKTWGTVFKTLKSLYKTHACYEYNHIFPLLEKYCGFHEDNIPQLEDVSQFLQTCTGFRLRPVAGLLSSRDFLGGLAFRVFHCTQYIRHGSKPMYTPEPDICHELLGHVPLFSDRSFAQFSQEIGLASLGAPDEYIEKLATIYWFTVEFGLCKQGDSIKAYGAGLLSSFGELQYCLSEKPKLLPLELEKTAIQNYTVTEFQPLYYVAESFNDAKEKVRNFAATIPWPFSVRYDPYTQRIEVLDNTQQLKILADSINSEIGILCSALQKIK
Assay: Cell Based Phenylalanine Flux Assay
Details: A375 cells expressing human R408W PAH; 24 hrs compound incubation; 13C-Tyrosine by LC-MS; average where tested multiple times; read-out: AC50

| AC50 [µM] | Structure (SMILES) |
| --- | --- |
| 0.5 to 1 | CC[C@@H](O)c1nc(C(F)F)c(C(=O)N2CCc3[nH]cnc3[C@@H]2c2nc3c(F)cccc3s2)o1 [Example 2068, (4-(difluoromethyl)-2-((R)-1-hydroxypropyl)oxazol-5-yl)((R)-4-(4-fluorobenzo[d]thiazol-2-yl)-6,7-dihydro-1H-imidazo[4,5-c]pyridin-5(4H)-yl)methanone] |
| < 0.5 | CNC(C)(C)c1nc(C(F)F)c(C(=O)N2CCc3[nH]cnc3[C@H]2c2nc3c(F)cccc3s2)o1 [Example 2069, (S)-(4-(difluoromethyl)-2-(2-(methylamino)propan-2-yl)oxazol-5-yl)(4-(4-fluorobenzo[d]thiazol-2-yl)-6,7-dihydro-1H-imidazo[4,5-c]pyridin-5(4H)-yl)methanone] |
| < 0.5 | CNC(C)(C)c1nc(C(F)F)c(C(=O)N2CCc3[nH]cnc3[C@@H]2c2nc3c(F)cccc3s2)o1 [Example 2070, (R)-(4-(difluoromethyl)-2-(2-(methylamino)propan-2-yl)oxazol-5-yl)(4-(4-fluorobenzo[d]thiazol-2-yl)-6,7-dihydro-1H-imidazo[4,5-c]pyridin-5(4H)-yl)methanone] |
| < 0.5 | CC(C)(CO)c1nc(C(F)F)c(C(=O)N2CCc3[nH]cnc3[C@H]2c2nc3c(F)cccc3s2)o1 [Example 2071] |
| 0.5 to 1 | CC(C)(CO)c1nc(C(F)F)c(C(=O)N2CCc3[nH]cnc3[C@@H]2c2nc3c(F)cccc3s2)o1 [Example 2072, (R)-(4-(difluoromethyl)-2-(1-hydroxy-2-methylpropan-2-yl)oxazol-5-yl)(4-(4-fluorobenzo[d]thiazol-2-yl)-6,7-dihydro-1H-imidazo[4,5-c]pyridin-5(4H)-yl)methanone] |
| 0.5 to 1 | CC(F)c1nc(C(F)F)c(C(=O)N2CCc3[nH]cnc3[C@@H]2c2nc3c(F)cccc3s2)o1 (stereo partly drawn) [Example 2076, (4-(difluoromethyl)-2-(1-fluoroethyl)oxazol-5-yl)((R)-4-(4-fluorobenzo[d]thiazol-2-yl)-6,7-dihydro-1H-imidazo[4,5-c]pyridin-5(4H)-yl)methanone] |
| > 5 | CCn1cnnc1C(=O)N1CCc2[nH]cnc2[C@@H]1c1nc2ccccc2s1 [Example 2077, (R)-(4-(benzo[d]thiazol-2-yl)-6,7-dihydro-1H-imidazo[4,5-c]pyridin-5(4H)-yl)(4-ethyl-4H-1,2,4-triazol-3-yl)methanone] |
| < 0.5 | CCn1cnnc1C(=O)N1CCc2[nH]cnc2[C@H]1c1nc2ccccc2s1 [Example 2078] |
| 1 to 5 | O=C(c1nncn1C1CC1)N1CCc2[nH]cnc2[C@@H]1c1nc2c(F)cccc2s1 [Example 2083, (R)-(4-cyclopropyl-4H-1,2,4-triazol-3-yl)(4-(4-fluorobenzo[d]thiazol-2-yl)-6,7-dihydro-1H-imidazo[4,5-c]pyridin-5(4H)-yl)methanone] |
| 0.5 to 1 | O=C(c1nncn1C1CC1)N1CCc2[nH]cnc2[C@H]1c1nc2c(F)cccc2s1 [Example 2084] |
| < 0.5 | CC(C)(O)c1nc(C(F)F)c(C(=O)N2CCc3[nH]cnc3[C@H]2c2nc3c(F)cccc3s2)s1 [Example 2085, (S)-(4-(difluoromethyl)-2-(2-hydroxypropan-2-yl)thiazol-5-yl)(4-(4-fluorobenzo[d]thiazol-2-yl)-6,7-dihydro-1H-imidazo[4,5-c]pyridin-5(4H)-yl)methanone] |

More lines, now with the values behind:

| Structure (SMILES) | AC50 [µM] |
| --- | --- |
| CCn1cnnc1C(=O)N1CCc2[nH]cnc2[C@H]1c1nc2c(F)cccc2s1 [Example 2044] | 0.5 to 1 |
| Cn1nc(C(C)(C)C#N)nc1C(=O)N1CCc2[nH]cnc2[C@H]1c1nc2ccccc2s1 [Example 2045, (S)-2-(5-(4-(benzo[d]thiazol-2-yl)-4,5,6,7-tetrahydro-1H-imidazo[4,5-c]pyridine-5-carbonyl)-1-methyl-1H-1,2,4-triazol-3-yl)-2-methylpropanenitrile] | 1 to 5 |
| Cn1nc(C(C)(C)C#N)nc1C(=O)N1CCc2[nH]cnc2[C@@H]1c1nc2ccccc2s1 [Example 2046, (R)-2-(5-(4-(benzo[d]thiazol-2-yl)-4,5,6,7-tetrahydro-1H-imidazo[4,5-c]pyridine-5-carbonyl)-1-methyl-1H-1,2,4-triazol-3-yl)-2-methylpropanenitrile] | 1 to 5 |
| Cn1nc(C(C)(C)C#N)nc1C(=O)N1CCc2[nH]cnc2[C@H]1c1nc2c(F)cccc2s1 [Example 2047, (S)-2-(5-(4-(4-fluorobenzo[d]thiazol-2-yl)-4,5,6,7-tetrahydro-1H-imidazo[4,5-c]pyridine-5-carbonyl)-1-methyl-1H-1,2,4-triazol-3-yl)-2-methylpropanenitrile] | 0.5 to 1 |
| Cn1nc(C(C)(C)C#N)nc1C(=O)N1CCc2[nH]cnc2[C@@H]1c1nc2c(F)cccc2s1 [Example 2048, (R)-2-(5-(4-(4-fluorobenzo[d]thiazol-2-yl)-4,5,6,7-tetrahydro-1H-imidazo[4,5-c]pyridine-5-carbonyl)-1-methyl-1H-1,2,4-triazol-3-yl)-2-methylpropanenitrile] | 1 to 5 |
| Cc1nc(C(C)(C)N(C)C)oc1C(=O)N1CCc2[nH]cnc2[C@H]1c1nc2c(F)cccc2s1 [Example 2049, (S)-(2-(2-(dimethylamino)propan-2-yl)-4-methyloxazol-5-yl)(4-(4-fluorobenzo[d]thiazol-2-yl)-6,7-dihydro-1H-imidazo[4,5-c]pyridin-5(4H)-yl)methanone] | 1 to 5 |
| Cc1nc(C(C)(C)N(C)C)oc1C(=O)N1CCc2[nH]cnc2[C@@H]1c1nc2c(F)cccc2s1 [Example 2050, (R)-(2-(2-(dimethylamino)propan-2-yl)-4-methyloxazol-5-yl)(4-(4-fluorobenzo[d]thiazol-2-yl)-6,7-dihydro-1H-imidazo[4,5-c]pyridin-5(4H)-yl)methanone] | 1 to 5 |
| Nc1cc(C(=O)N2CCc3[nH]cnc3[C@H]2c2nc3ccccc3s2)n(C(F)F)n1 [Example 2051] | < 0.5 |
| Nc1cc(C(=O)N2CCc3[nH]cnc3[C@@H]2c2nc3ccccc3s2)n(C(F)F)n1 [Example 2052, (R)-(3-amino-1-(difluoromethyl)-1H-pyrazol-5-yl)(4-(benzo[d]thiazol-2-yl)-6,7-dihydro-1H-imidazo[4,5-c]pyridin-5(4H)-yl)methanone] | 1 to 5 |
| Nc1cc(C(=O)N2CCc3[nH]cnc3[C@H]2c2nc3c(F)cccc3s2)n(C(F)F)n1 [Example 2053, (S)-(3-amino-1-(difluoromethyl)-1H-pyrazol-5-yl)(4-(4-fluorobenzo[d]thiazol-2-yl)-6,7-dihydro-1H-imidazo[4,5-c]pyridin-5(4H)-yl)methanone] | 0.5 to 1 |
| Nc1cc(C(=O)N2CCc3[nH]cnc3[C@@H]2c2nc3c(F)cccc3s2)n(C(F)F)n1 [Example 2054, (R)-(3-amino-1-(difluoromethyl)-1H-pyrazol-5-yl)(4-(4-fluorobenzo[d]thiazol-2-yl)-6,7-dihydro-1H-imidazo[4,5-c]pyridin-5(4H)-yl)methanone] | > 5 |
| O=C(c1oc(C2(O)CC2)nc1C(F)F)N1CCc2[nH]cnc2[C@H]1c1nc2ccccc2s1 [Example 2055] | < 0.5 |
| O=C(c1oc(C2(O)CC2)nc1C(F)F)N1CCc2[nH]cnc2[C@@H]1c1nc2ccccc2s1 [Example 2056, (R)-(4-(benzo[d]thiazol-2-yl)-6,7-dihydro-1H-imidazo[4,5-c]pyridin-5(4H)-yl)(4-(difluoromethyl)-2-(1-hydroxycyclopropyl)oxazol-5-yl)methanone] | 1 to 5 |
| CC(C)(O)Cc1nc(C(F)F)c(C(=O)N2CCc3[nH]cnc3[C@H]2c2nc3c(F)cccc3s2)o1 [Example 2061] | < 0.5 |
| CC(C)(O)Cc1nc(C(F)F)c(C(=O)N2CCc3[nH]cnc3[C@@H]2c2nc3c(F)cccc3s2)o1 [Example 2062, (R)-(4-(difluoromethyl)-2-(2-hydroxy-2-methylpropyl)oxazol-5-yl)(4-(4-fluorobenzo[d]thiazol-2-yl)-6,7-dihydro-1H-imidazo[4,5-c]pyridin-5(4H)-yl)methanone] | 1 to 5 |
| CC[C@H](O)c1nc(C(F)F)c(C(=O)N2CCc3[nH]cnc3[C@H]2c2nc3c(F)cccc3s2)o1 [Example 2063] | < 0.5 |
| CC[C@H](O)c1nc(C(F)F)c(C(=O)N2CCc3[nH]cnc3[C@@H]2c2nc3c(F)cccc3s2)o1 [Example 2064, (4-(difluoromethyl)-2-((S)-1-hydroxypropyl)oxazol-5-yl)((R)-4-(4-fluorobenzo[d]thiazol-2-yl)-6,7-dihydro-1H-imidazo[4,5-c]pyridin-5(4H)-yl)methanone] | 1 to 5 |
| CC(C)(O)c1nc(CF)c(C(=O)N2CCc3[nH]cnc3[C@H]2c2nc3c(F)cccc3s2)o1 [Example 2065, (S)-(4-(4-fluorobenzo[d]thiazol-2-yl)-6,7-dihydro-1H-imidazo[4,5-c]pyridin-5(4H)-yl)(4-(fluoromethyl)-2-(2-hydroxypropan-2-yl)oxazol-5-yl)methanone] | < 0.5 |
| CC(C)(O)c1nc(CF)c(C(=O)N2CCc3[nH]cnc3[C@@H]2c2nc3c(F)cccc3s2)o1 [Example 2066, (R)-(4-(4-fluorobenzo[d]thiazol-2-yl)-6,7-dihydro-1H-imidazo[4,5-c]pyridin-5(4H)-yl)(4-(fluoromethyl)-2-(2-hydroxypropan-2-yl)oxazol-5-yl)methanone] | 1 to 5 |
| CC[C@@H](O)c1nc(C(F)F)c(C(=O)N2CCc3[nH]cnc3[C@H]2c2nc3c(F)cccc3s2)o1 [Example 2067] | < 0.5 |
